Assay results taken from PMC6274786 (International Journal of Molecular Sciences, 2018).
Like-named read-outs stand apart in the source and are kept apart here.

Key:
STR-induced seizure = test: Strychnine (STR)-induced seizure; assay type: in vivo, Wistar rats; conditions: for STR-Induced Seizure (protection class): STR 3.5 mg/kg; for protective effect in STR-induced seizure (in words): 30 min observation, vs saline-treated group
Description: (§1) In this study and according to previously used protocols, two chemical agents have been used to induce seizures, namely pentylenetetrazole (PTZ, 60 mg/kg, i.p.) and strychnine (STR, 3.5 mg/kg, i.p.). PTZ 60 mg/kg or STR 3.5 mg/kg were administered i.p. to all groups of seven rats (n = 7), that is, animals pretreated with vehicle or test compounds 1–16. Vehicle, VPA (300 mg/kg, i.p.), [26, 47, 48, 49] or test compounds 1–16 (10 mg/kg, i.p.) were systemically administered 30–45 min before PTZ (60 mg/kg, i.p.) or STR (3.5 mg/kg, i.p.) injection, and animals were directly observed for any signs of convulsion for a duration of 30 min. The observed scores as well as percent protection against generalized tonic-clonic seizure (GTCS) were graded and scaled according to the Racine scale (stage 0, no change in behavior; stage 1, stereotype mouthing, eye blinking, and/or mild facial clonus; stage 2, head nodding and/or severe facial clonus; stage 3, myoclonic jerk in forelimbs; stage 4, clonic convulsions in the forelimbs with rearing; stage 5, generalized colonic convulsions associated with loss of balance) to evaluate the protection provided by the respective test compound against seizures. The animals were divided into eighteen groups of seven rats (n = 7) and treated as follows.
(§2) (1) Control group injected with vehicle + PTZ (SAL group), (2) positive control group in which rats were injected with VPA (300 mg/kg) + PTZ (VPA group), and animals in the test groups (3)–(18) were systemically administered with test compounds 1–16 (10 mg/kg), respectively. An additional PTZ experiment was conducted using three different groups of seven rats (n = 7), the H3R ligand with the most promising protection in PTZ model was administered at doses of 2.5, 5, or 15 mg/kg, i.p. 30–45 min before the PTZ challenge. […] The same experimental procedure was followed in the STR-induced seizure model applying the reference drug VPA, which was used at a dose of 300 mg/kg, i.p. (Figure 3, Table 2).

MES-induced seizure = test: Maximal electroshock (MES)-induced seizure; assay type: in vivo, Wistar rats; conditions: 10 mg/kg i.p.; for MES-Induced Seizure (protection class): 50 Hz, 120 mA, 1 s
Description: As previously described, the seizures were induced in rats with a 50 Hz alternating current of 120 mA intensity. The current was applied through ear electrodes for 1 s. Protection against the spread of MES-induced seizure was defined as the abolition of the tonic hind limb extension (THLE) component of the seizure. For the first screening of protective effects of test compounds 1–16 in the MES-induced seizure model, the animals were divided into eighteen groups of seven rats (n = 7) as follows; group (1) control group injected with vehicle (SAL), group (2) positive control group in which rats were injected with PHT at a dose of 10 mg/kg (this being the minimal dose of PHT that protected animals against the spread of MES-induced seizures without mortality), and groups (3)–(18) animals in the experimental groups were administered H3R antagonists 1–16 at a dose of 10 mg/kg. In another MES experiment in three separate groups of six rats (n = 6), H3R antagonist 4 with the most promising protection in MES model was administered at doses of 2.5, 5, or 15 mg/kg, i.p. 30–45 min before the MES challenge.

PTZ-induced seizure = test: Pentylenetetrazole (PTZ)-induced seizure; assay type: in vivo, Wistar rats; conditions: for PTZ-Induced Seizure (protection class): PTZ 60 mg/kg; for protective effect in PTZ-induced seizure (in words): observed over 30 min, vs saline-treated group
Description: as §1, §2

human histamine H3R = biological target: T1, human histamine H3R (Homo sapiens, UniProt Q9Y5N1); test: [3H]Nα-methylhistamine radioligand displacement assay, HEK-293 cell membranes; assay type: binding
T1 construct: expressed in transfected cells
T1 sequence (Q9Y5N1 whole entry): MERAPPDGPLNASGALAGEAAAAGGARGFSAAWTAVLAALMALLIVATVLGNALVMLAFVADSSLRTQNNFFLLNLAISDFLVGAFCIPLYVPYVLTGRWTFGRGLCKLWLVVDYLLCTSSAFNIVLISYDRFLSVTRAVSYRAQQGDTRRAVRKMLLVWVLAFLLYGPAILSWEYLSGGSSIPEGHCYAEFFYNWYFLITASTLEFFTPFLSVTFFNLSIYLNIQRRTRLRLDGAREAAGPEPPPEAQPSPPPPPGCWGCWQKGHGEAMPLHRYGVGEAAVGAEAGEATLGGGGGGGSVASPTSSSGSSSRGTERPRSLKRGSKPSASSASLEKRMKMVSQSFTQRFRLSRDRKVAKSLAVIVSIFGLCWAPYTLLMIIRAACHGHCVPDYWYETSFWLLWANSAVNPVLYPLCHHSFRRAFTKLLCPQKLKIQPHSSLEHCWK
Description: As described previously, the affinity for the human histamine H3R was tested utilizing radioligand displacement assays with [^3H]N^α-methylhistamine at membrane preparations from human embryonic kidney (HEK)-293 cells, stably expressing the receptor. […] The analysis of data was conducted by the software GraphPad Prism 7 (San Diego, CA, USA), using the “one-site competition” equation. Ki values were calculated from the 50 percent of inhibitory concentration (IC50) values according to the Cheng-Prusoff equation [44]

hH4R = biological target: T2, hH4R (Homo sapiens, UniProt Q9H3N8); test: H4R radioligand displacement assay, Sf9 cell membrane preparations; assay type: binding
T2 construct: expressed in transfected cells; host or cells: Sf9 insect cells (membrane preparations)
T2 sequence (Q9H3N8 whole entry): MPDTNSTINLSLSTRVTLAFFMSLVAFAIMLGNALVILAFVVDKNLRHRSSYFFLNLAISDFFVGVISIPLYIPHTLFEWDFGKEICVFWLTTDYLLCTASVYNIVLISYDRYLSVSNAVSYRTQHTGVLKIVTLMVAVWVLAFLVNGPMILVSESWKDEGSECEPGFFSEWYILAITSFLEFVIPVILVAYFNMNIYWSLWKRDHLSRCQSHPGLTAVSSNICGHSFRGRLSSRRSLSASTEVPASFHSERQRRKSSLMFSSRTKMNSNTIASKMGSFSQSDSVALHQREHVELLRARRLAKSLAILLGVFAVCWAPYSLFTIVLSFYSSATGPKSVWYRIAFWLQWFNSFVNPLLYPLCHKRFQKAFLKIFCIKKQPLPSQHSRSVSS
Description: H4R radioligand displacement assays were performed with Sf9 cell membrane preparations, expressing the hH4R, as described previously. Assays ran in triplicates with four appropriate concentrations of the test compound. Data were analyzed by GraphPad Prism 7, using the “one-site competition” equation.

human H1 receptor = biological target: T3, human H1 receptor (Homo sapiens, UniProt P35367); test: Radioligand binding, membranes from CHO-K1 cells
T3 construct: purchased PerkinElmer; host or cells: CHO-K1 cells, stably transfected (membranes)
T3 sequence (P35367 whole entry): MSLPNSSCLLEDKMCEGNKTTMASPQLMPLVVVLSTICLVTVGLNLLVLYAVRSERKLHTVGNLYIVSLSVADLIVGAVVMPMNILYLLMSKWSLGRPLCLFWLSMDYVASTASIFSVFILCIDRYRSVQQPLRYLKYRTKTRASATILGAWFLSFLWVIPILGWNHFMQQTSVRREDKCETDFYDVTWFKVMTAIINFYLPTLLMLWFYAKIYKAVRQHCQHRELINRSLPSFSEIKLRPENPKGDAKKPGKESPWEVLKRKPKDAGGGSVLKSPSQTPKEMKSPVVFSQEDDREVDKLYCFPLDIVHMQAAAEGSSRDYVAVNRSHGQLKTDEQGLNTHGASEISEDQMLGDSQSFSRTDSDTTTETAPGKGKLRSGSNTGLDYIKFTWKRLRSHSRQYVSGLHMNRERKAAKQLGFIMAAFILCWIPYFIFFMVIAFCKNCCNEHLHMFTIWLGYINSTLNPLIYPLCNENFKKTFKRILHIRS
Description: Radioligand binding was performed as previously described using membranes from CHO-K1 cells stably transfected with the human H1 receptor (PerkinElmer., Waltham, MA, USA). Data were fitted to a one-site curve-fitting equation with Prism 6 (GraphPad Software, city, state, country) and Ki values were estimated from the Cheng–Prusoff equation [44].

[1] = mean with 95% confidence interval, read-out: In Vitro Affinity Ki (hH3R) in nM [CI]

Row | Structure (SMILES) | STR-Induced Seizure (protection class) (STR-induced seizure; 10 mg/kg i.p.) | MES-Induced Seizure (protection class) (MES-induced seizure) | PTZ-Induced Seizure (protection class) (PTZ-induced seizure; 10 mg/kg i.p.) | Ki (human histamine H3R) | other results
1 | CC1CCCN(CCCCCOc2ccc3ccccc3c2)C1.O=C(O)C(=O)O (stereo not shown) [Ligand 1, 3-methyl-1-(5-(naphthalen-2-yloxy)pentyl)piperidine hydrogen oxalate] | − | − | − |  | 
2 | O=C(O)C(=O)O.c1ccc2cc(OCCCCCN3CCCCCC3)ccc2c1 [Ligand 2, 1-(5-(naphthalen-2-yloxy)pentyl)azepane hydrogen oxalate] | − | − | − |  | 
3 | CC1CCCN(CCCCCCOc2ccc3ccccc3c2)C1.O=C(O)C(=O)O (stereo not shown) [Ligand 3, 3-methyl-1-(6-(naphthalen-2-yloxy)hexyl)piperidine hydrogen oxalate] | − | ++ (high protective effect (THLE duration <1, seizure score 0)) | − |  | 
4 | O=C(O)C(=O)O.O=C(c1ccccc1)c1ccc(OCCCCCCN2CCCCC2)cc1 [Ligand 5, phenyl(4-(6-(piperidin-1-yl)hexyloxy)phenyl)methanone hydrogen oxalate] | − | ++ (high protective effect (THLE duration <1, seizure score 0)) | − | 41.1 nM | 
5 | O=C(O)C(=O)O.O=C(c1ccccc1)c1ccc(OCCCCCCN2CCCCCC2)cc1 [Ligand 7, (4-(6-(azepan-1-yl)hexyloxy)phenyl)(phenyl)methanone hydrogen oxalate] | − | + (moderate protective effect (tonic hind limb extension (THLE) duration in the range of 2–5 s, seizure score in the range of 2–4)) | ++ (high protective effect (THLE duration <1, seizure score 0)) | 40.5 nM | protective effect in STR-induced seizure (in words) (STR-induced seizure; 10 mg/kg i.p.): failed to exhibit appreciable protection; Ki (hH4R): > 10000 nM; protective effect in PTZ-induced seizure (in words) (PTZ-induced seizure; 10 mg/kg i.p.): full protective activities; Ki (human H1 receptor): 915 nM; fold lower affinity at hH1- and H4Rs than at H3R (human H1 receptor; selectivity toward H3Rs): at least 10 fold
6 | O=C(O)C(=O)O.O=C(c1ccccc1)c1cccc(OCCCCCCN2CCCCC2)c1 [Ligand 8, phenyl(3-(6-(piperidin-1-yl)hexyloxy)phenyl)methanone hydrogen oxalate] | − | + (moderate protective effect (tonic hind limb extension (THLE) duration in the range of 2–5 s, seizure score in the range of 2–4)) | − | 76.1 nM | 
7 | CC1CCCN(CCCCCCOc2cccc(C(=O)c3ccccc3)c2)C1.O=C(O)C(=O)O (stereo not shown) [Ligand 9, (3-(6-(3-methylpiperidin-1-yl)hexyloxy)phenyl)(phenyl)methanone hydrogen oxalate] | − | − | − | 110 nM | Ki (human H1 receptor): 915 to 1340 nM
8 | O=C(O)C(=O)O.O=C(c1ccccc1)c1cccc(OCCCCCCN2CCCCCC2)c1 [Ligand 10, (3-(6-(azepan-1-yl)hexyloxy)phenyl)(phenyl)methanone hydrogen oxalate] | − | − | − | 69.5 nM | 
9 | Fc1ccc(OCCCCCCN2CCCCC2)cc1.O=C(O)C(=O)O [Ligand 11, 1-(6-(4-fluorophenoxy)hexyl)piperidine hydrogen oxalate] | − | − | ++ (high protective effect (THLE duration <1, seizure score 0)) |  | protective effect in STR-induced seizure (in words) (STR-induced seizure; 10 mg/kg i.p.): failed to exhibit appreciable protection; Ki (human histamine H3R; [1]): 115 nM; protective effect in PTZ-induced seizure (in words) (PTZ-induced seizure; 10 mg/kg i.p.): full protective activities
10 | CC1CCCN(CCCCCCOc2ccc(F)cc2)C1.O=C(O)C(=O)O (stereo not shown) [Ligand 12, 1-(6-(4-fluorophenoxy)hexyl)-3-methylpiperidine hydrogen oxalate] | − | − | + (moderate protective effect (tonic hind limb extension (THLE) duration in the range of 2–5 s, seizure score in the range of 2–4)) |  | Ki (human histamine H3R; [1]): 83.6 nM
11 | O=C(O)C(=O)O.O=C(c1ccccc1)c1ccc(OCCCCCN2CCCCC2)cc1 [Ligand 14, phenyl(4-(5-(piperidin-1-yl)pentyloxy)phenyl)methanone hydrogen oxalate] | − | + (moderate protective effect (tonic hind limb extension (THLE) duration in the range of 2–5 s, seizure score in the range of 2–4)) | + (moderate protective effect (tonic hind limb extension (THLE) duration in the range of 2–5 s, seizure score in the range of 2–4)) | 36.2 nM | 
12 | CC1CCCN(CCCCCOc2ccc(C(=O)c3ccccc3)cc2)C1.O=C(O)C(=O)O (stereo not shown) [Ligand 15, (4-(5-(3-methylpiperidin-1-yl)pentyloxy)phenyl)(phenyl)methanone hydrogen oxalate] | − | − | + (moderate protective effect (tonic hind limb extension (THLE) duration in the range of 2–5 s, seizure score in the range of 2–4)) | 40.2 nM | Ki (human H1 receptor): 915 to 1340 nM
13 | O=C(O)C(=O)O.O=C(c1ccccc1)c1ccc(OCCCCCN2CCCCCC2)cc1 [Ligand 16, (4-(5-(azepan-1-yl)pentyloxy)phenyl)(phenyl)methanone hydrogen oxalate] | − | − | − | 38.5 nM | 
14 | O=C1NC(=O)C(c2ccccc2)(c2ccccc2)N1 [PHT, phenytoin, reference compound] |  |  |  |  | MES-Induced Seizure Average THLE (MES-induced seizure): 0.90 ± 0.19 s
15 | C[C@@H](N)Cc1c[nH]cn1 [RAMH, (R)-α-methylhistamine, reference compound] |  |  |  |  | STR-Induced Seizure % Protection against GTCS (STR-induced seizure; 10 mg/kg i.p.): 28.57%; STR-Induced Seizure Average Seizure Score (STR-induced seizure; 10 mg/kg i.p.): 4.71 ± 0.16; MES-Induced Seizure Average THLE (MES-induced seizure): 7.92 ± 0.60 s; protective effect in MES-induced seizure (in words) (MES-induced seizure; vs saline-treated group): did not affect MES-induced seizures; PTZ-Induced Seizure % Protection against GTCS (PTZ-induced seizure; 10 mg/kg i.p.): 14.29%; PTZ-Induced Seizure Average Seizure Score (PTZ-induced seizure; 10 mg/kg i.p.): 4.29 ± 0.25; protective effect in PTZ-induced seizure (in words) (PTZ-induced seizure; 10 mg/kg i.p.): did not affect seizure score
16 | CCCC(CCC)C(=O)O [VPA, valproic acid, reference compound] |  |  |  |  | STR-Induced Seizure % Protection against GTCS (STR-induced seizure; 300 mg/kg i.p.): 100%; STR-Induced Seizure Average Seizure Score (STR-induced seizure; 300 mg/kg i.p.): 0; PTZ-Induced Seizure % Protection against GTCS (PTZ-induced seizure; 300 mg/kg i.p.): 100%; PTZ-Induced Seizure Average Seizure Score (PTZ-induced seizure; 300 mg/kg i.p.): 0.00 ± 0.00
